pIC50: −log10 of the molar value. Bridge positions count the residues as written; N and C are the ends. Square brackets hold non-standard residues; d marks the D form. Peptide text beside a SMILES is read from it. * marks the point of attachment. ξ: configuration not given here. Phe(F5) = N[C@@H](Cc1c(F)c(F)c(F)c(F)c1F)C(=O)O; Phe(4-COOH) = N[C@@H](Cc1ccc(C(=O)O)cc1)C(=O)O; Bip = N[C@@H](Cc1ccc(-c2ccccc2)cc1)C(=O)O; NH(CH2)14COOH = O=C(O)CCCCCCCCCCCCCCN*; Phe(3-Me) = Cc1cccc(C[C@H](N)C(=O)O)c1; His(π-Me) = Cn1cncc1C[C@H](N)C(=O)O; Val(3-OH) = CC(C)(O)[C@H](N)C(=O)O; hArg = N=C(N)NCCCC[C@H](N)C(=O)O; Cha = N[C@@H](CC1CCCCC1)C(=O)O; Cit = NC(=O)NCCC[C@H](N)C(=O)O; NMeN = CN[C@@H](CC(N)=O)C(=O)O; dCha = N[C@H](CC1CCCCC1)C(=O)O; Thr(3ξ) = CC(O)[C@H](N)C(=O)O; 12Ado = NCCCCCCCCCCCC(=O)O; Carboxymethyl = O=C(O)C*; Orn = NCCC[C@H](N)C(=O)O; Aun = NCCCCCCCCCCC(=O)O; Dab = NCC[C@H](N)C(=O)O; Dap = NC[C@H](N)C(=O)O; AEEA = NCCOCCOCC(=O)O; Piv = CC(C)(C)C(=O)*

The text below walks through data of patent US20260022142A1, “MACROCYCLIC IMMUNOMODULATORS” (Bristol-Myers Squibb Company, priority 2022, published 2026).

In the experiment the target is T1, PD-1/PD-L1 interaction (PE-labeled human PD-L1-Ig binding to Jurkat cell line over-expressing human PD-1) (Homo sapiens, UniProt Q15116).
T1 construct: expressed in transfected cells; host or cells: Jurkat
T1 sequence (Q15116 25-288): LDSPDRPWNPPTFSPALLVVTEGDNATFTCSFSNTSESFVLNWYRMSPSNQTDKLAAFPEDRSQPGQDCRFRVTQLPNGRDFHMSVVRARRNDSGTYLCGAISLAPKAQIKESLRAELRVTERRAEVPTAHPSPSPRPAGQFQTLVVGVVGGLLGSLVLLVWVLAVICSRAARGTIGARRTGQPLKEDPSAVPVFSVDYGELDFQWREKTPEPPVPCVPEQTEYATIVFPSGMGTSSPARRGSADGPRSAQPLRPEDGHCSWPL
The experiment in a line: Jurkat-PD-1 Cell Binding High-Content Screening Assay (CBA). The experiment is classed as cell-based. The following applies: Jurkat cell line over-expressing human PD-1; PE-labeled PD-L1-Ig 20 nM final; read-out: Jurkat hPD1-PDL1 IC50. The gist of the method: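 Jurkat-hPD-1 cells, DMEM/10% FCS; cpd 2 h 37° C; PE-PD-L1-Ig 20 nM final, 1 h; 4% PFA fix + Hoechst 33342, 3× dPBS wash; high-content imaging read-out.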
Regarding `Cc1cccc(C[C@@H]2NC(=O)[C@H](CC(=O)O)NC(=O)[C@H](Cc3ccc(OCC(=O)O)cc3)NC(=O)[C@H](CCN)NC(=O)CSC[C@@H](C(=O)N[C@@H](CCN)C(=O)N[C@@H](CO)C(=O)NCCCCCCCCCCCC(=O)O)NC(=O)[C@H](CCCN)NC(=O)[C@H](C(C)(C)O)NC(=O)[C@H](CC3CCCCC3)NC(=O)[C@H](CCN)NC(=O)[C@@H](CC(C)C)NC(=O)[C@H](CCCN)NC(=O)[C@H](Cc3ccc(OCC(=O)O)cc3)NC(=O)[C@H](Cc3ccc(-c4ccccc4)cc3)NC(=O)[C@H](Cc3ccc(OCC(=O)O)cc3)NC2=O)c1` [Compound 3624] ({CH2CO}-[Dab]Y(Carboxymethyl)D[Phe(3-Me)]Y(Carboxymethyl)[Bip]Y(Carboxymethyl)[Orn][dL][Dab][Cha][Val(3-OH)][Orn]C[Dab]S[12Ado]-OH; thioether N-14), the negative logarithm of the IC50 (pIC50) was 7.67. As for `Cc1cccc(C[C@@H]2NC(=O)[C@H](CC(=O)O)NC(=O)[C@H](Cc3ccc(OCC(=O)O)cc3)NC(=O)[C@H](CCCNC(=N)N)NC(=O)CSC[C@@H](C(=O)N[C@@H](CO)C(=O)N[C@@H](CO)C(=O)NCCCCCCCCCCC(=O)O)NC(=O)[C@H]([C@@H](C)O)NC(=O)[C@H](C(C)C)NC(=O)[C@H](CC3CCCCC3)NC(=O)[C@H](CCN)NC(=O)[C@@H](CC(C)C)NC(=O)[C@H](CCCN)NC(=O)[C@H](CCCNC(N)=O)NC(=O)[C@H](Cc3ccc(-c4ccccc4)cc3)NC(=O)[C@H](C(C)C)NC2=O)c1` [Compound 2851] ({CH2CO}-RY(Carboxymethyl)D[Phe(3-Me)]V[Bip][Cit][Orn][dL][Dab][Cha]VTCSS[Aun]-OH; thioether N-14), the figure is 7.67; as for `Cc1cccc(C[C@@H]2NC(=O)[C@H](CC(=O)O)NC(=O)[C@H](Cc3ccc(OCC(=O)O)cc3)NC(=O)[C@H](Cc3cncn3C)NC(=O)CSC[C@@H](C(=O)N[C@@H](CCN)C(=O)NCCCCCCCCCCC(=O)O)NC(=O)[C@H]([C@@H](C)O)NC(=O)[C@H](C(C)C)NC(=O)[C@H](CC3CCCCC3)NC(=O)[C@H](CCN)NC(=O)[C@@H](CC(C)C)NC(=O)[C@H](CCCN)NC(=O)[C@H](Cc3ccc(OCC(=O)O)cc3)NC(=O)[C@H](Cc3ccc(-c4ccccc4)cc3)NC(=O)[C@H](Cc3ccc(OCC(=O)O)cc3)NC2=O)c1` [Compound 2148] ({CH2CO}-[His(π-Me)]Y(Carboxymethyl)D[Phe(3-Me)]Y(Carboxymethyl)[Bip]Y(Carboxymethyl)[Orn][dL][Dab][Cha]VTC[Dab][Aun]-OH; thioether N-14), 7.60. In the case of `Cc1cccc(C[C@@H]2NC(=O)[C@H](CC(=O)O)NC(=O)[C@H](Cc3ccc(OCC(=O)O)cc3)NC(=O)[C@H](C(C)O)NC(=O)CSC[C@@H](C(=O)N[C@@H](CC(N)=O)C(=O)NCCCCCCCCCCC(=O)O)NC(=O)[C@H](CCCNC(N)=O)NC(=O)[C@H](C(C)C)NC(=O)[C@H](CC3CCCCC3)NC(=O)[C@H](CCN)NC(=O)[C@@H](CC(C)C)NC(=O)[C@H](CCCN)NC(=O)[C@H](Cc3ccc(O)cc3)NC(=O)[C@H](Cc3ccc(-c4ccccc4)cc3)NC(=O)[C@H](C(C)C)NC2=O)c1` (stereo partly drawn) [Compound 3426] ({CH2CO}-[Thr(3ξ)]Y(Carboxymethyl)D[Phe(3-Me)]V[Bip]Y[Orn][dL][Dab][Cha]V[Cit]CN[Aun]-OH; thioether N-14), the pIC50 was 7.97. As to `CC(C)C[C@H]1NC(=O)[C@H](CCCN)NC(=O)[C@H](C(C)C)NC(=O)[C@H](Cc2ccc(-c3ccccc3)cc2)NC(=O)[C@H](C(C)C)NC(=O)[C@H](Cc2c[nH]c3ccccc23)NC(=O)[C@H](CC(=O)O)NC(=O)[C@H](Cc2ccc(OCC(=O)O)cc2)NC(=O)[C@H](CCCCNC(=N)N)NC(=O)CSC[C@@H](C(=O)N[C@@H](CC(N)=O)C(=O)NCCOCCOCC(=O)N[C@@H](CCCN)C(=O)NCCCCCCCCCCC(=O)O)NC(=O)[C@H](C(C)O)NC(=O)[C@H](C(C)C)NC(=O)[C@H](CC2CCCCC2)NC(=O)[C@H](CCN)NC1=O` (stereo partly drawn) [Compound 3030] ({CH2CO}-[hArg]Y(Carboxymethyl)DWV[Bip]V[Orn][dL][Dab][Cha]V[Thr(3ξ)]CN[AEEA][Orn][Aun]-OH; thioether N-14), the pIC50 was 7.92.

On to `Cc1cccc(C[C@@H]2NC(=O)[C@H](CC(=O)O)NC(=O)[C@H](Cc3ccc(OCC(=O)O)cc3)NC(=O)[C@H](C(C)O)NC(=O)CSC[C@@H](C(=O)N(C)[C@@H](CC(N)=O)C(=O)NCCOCCOCC(=O)NCCCCCCCCCCC(=O)O)NC(=O)[C@H](CCCN)NC(=O)[C@H](C(C)C)NC(=O)[C@H](CC3CCCCC3)NC(=O)[C@H](CCN)NC(=O)[C@@H](CC(C)C)NC(=O)[C@H](CCN)NC(=O)[C@H](C(C)C)NC(=O)[C@H](Cc3ccc(-c4ccccc4)cc3)NC(=O)[C@H](C(C)C)NC2=O)c1` (stereo partly drawn) [Compound 3322] ({CH2CO}-[Thr(3ξ)]Y(Carboxymethyl)D[Phe(3-Me)]V[Bip]V[Dab][dL][Dab][Cha]V[Orn]C[NMeN][AEEA][Aun]-OH; thioether N-14), for which the pIC50 is 7.43. For `CC(C)[C@@H]1NC(=O)[C@H](CC2CCCCC2)NC(=O)[C@H](CCN)NC(=O)[C@@H](CC2CCCCC2)NC(=O)[C@H](CCCN)NC(=O)[C@H](C(C)C)NC(=O)[C@H](Cc2ccc(-c3ccccc3)cc2)NC(=O)[C@H](C(C)C)NC(=O)[C@H](Cc2c[nH]c3ccccc23)NC(=O)[C@H](CC(=O)O)NC(=O)[C@H](Cc2ccc(OCC(=O)O)cc2)NC(=O)[C@H](CN)NC(=O)CSC[C@@H](C(=O)NCCOCCOCC(=O)N[C@@H](CCN)C(=O)NCCCCCCCCCCC(=O)O)NC(=O)[C@H](CCCCN)NC1=O` [Compound 2673] ({CH2CO}-[Dap]Y(Carboxymethyl)DWV[Bip]V[Orn][dCha][Dab][Cha]VKC[AEEA][Dab][Aun]-OH; thioether N-14), the negative logarithm of the IC50 (pIC50) was 7.65. As for `CC(C)C[C@H]1NC(=O)[C@H](CCCN)NC(=O)[C@H](C(C)C)NC(=O)[C@H](Cc2ccc(-c3ccccc3)cc2)NC(=O)[C@H](C(C)C)NC(=O)[C@H](Cc2c[nH]c3ccccc23)NC(=O)[C@H](CC(=O)O)NC(=O)[C@H](Cc2ccc(OCC(=O)O)cc2)NC(=O)[C@H](CCCNC(=N)N)NC(=O)CSC[C@@H](C(=O)N[C@@H](CCN)C(=O)NCCCCCCCCCCC(=O)O)NC(=O)[C@H](CN)NC(=O)[C@H](C(C)C)NC(=O)[C@H](CC2CCCCC2)NC(=O)[C@H](CCN)NC1=O` [Compound 3287] ({CH2CO}-RY(Carboxymethyl)DWV[Bip]V[Orn][dL][Dab][Cha]V[Dap]C[Dab][Aun]-OH; thioether N-14), the figure is 7.97. As for `Cc1cccc(C[C@@H]2NC(=O)[C@H](CC(=O)O)NC(=O)[C@H](Cc3ccc(OCC(=O)O)cc3)NC(=O)[C@H](CN)NC(=O)CSC[C@@H](C(=O)N[C@@H](CCN)C(=O)NCCOCCOCC(=O)NCCCCCCCCCCC(=O)O)NC(=O)[C@H](CCC(=O)O)NC(=O)[C@H](C(C)C)NC(=O)[C@H](Cc3c(F)c(F)c(F)c(F)c3F)NC(=O)[C@H](CCN)NC(=O)[C@@H](CC(C)C)NC(=O)[C@H](CCCN)NC(=O)[C@H](Cc3ccc(OCC(=O)O)cc3)NC(=O)[C@H](Cc3ccc(-c4ccccc4)cc3)NC(=O)[C@H](Cc3ccc(C(=O)O)cc3)NC2=O)c1` [Compound 1273] ({CH2CO}-[Dap]Y(Carboxymethyl)D[Phe(3-Me)][Phe(4-COOH)][Bip]Y(Carboxymethyl)[Orn][dL][Dab][Phe(F5)]VEC[Dab][AEEA][Aun]-OH; thioether N-14), the pIC50 is 6.48. Turning to `Cc1cccc(C[C@@H]2NC(=O)[C@H](CC(=O)O)NC(=O)[C@H](Cc3ccc(O)cc3)NC(=O)[C@H](CC(N)=O)NC(=O)CSC[C@@H](C(=O)N[C@@H](CCN)C(=O)NCCCCCCCCCCC(=O)O)NC(=O)[C@H](CCC(=O)O)NC(=O)[C@H](C(C)C)NC(=O)[C@H](CC(C)C)NC(=O)[C@H](CCN)NC(=O)[C@@H](CC(C)C)NC(=O)[C@H](CCCN)NC(=O)[C@H](CCCNC(N)=O)NC(=O)[C@H](Cc3ccc(-c4ccccc4)cc3)NC(=O)[C@H](C(C)C)NC2=O)c1` [Compound 2773] ({CH2CO}-NYD[Phe(3-Me)]V[Bip][Cit][Orn][dL][Dab]LVEC[Dab][Aun]-OH; thioether N-14), the pIC50 is 7.66. As for `CC(C)C[C@H]1NC(=O)[C@H](CCCN)NC(=O)[C@H](C(C)C)NC(=O)[C@H](Cc2ccc(-c3ccccc3)cc2)NC(=O)[C@H](C(C)C)NC(=O)[C@H](Cc2c[nH]c3ccccc23)NC(=O)[C@H](CC(=O)O)NC(=O)[C@H](Cc2ccc(C(=O)O)cc2)NC(=O)[C@H](CCCCNC(=N)N)NC(=O)CSC[C@@H](C(=O)N[C@@H](C)C(=O)N[C@@H](CCCCN)C(=O)NCCCCCCCCCCCCCCC(=O)O)NC(=O)[C@H](C(C)O)NC(=O)[C@H](C(C)C)NC(=O)[C@H](CC2CCCCC2)NC(=O)[C@H](CCN)NC1=O` (stereo partly drawn) [Compound 3016] ({CH2CO}-[hArg][Phe(4-COOH)]DWV[Bip]V[Orn][dL][Dab][Cha]V[Thr(3ξ)]CAK-{NH(CH2)14COOH}; thioether N-14), the figure is 7.02; as for `Cc1cccc(C[C@@H]2NC(=O)[C@H](CC(=O)O)NC(=O)[C@H](Cc3ccc(OCC(=O)O)cc3)NC(=O)[C@H](CCN)NC(=O)CSC[C@@H](C(=O)N[C@@H](CCCCN)C(=O)N[C@@H](CN)C(=O)NCCCCCCCCCCC(=O)O)NC(=O)[C@H](CCCCN)NC(=O)[C@H](C(C)C)NC(=O)[C@H](CC3CCCCC3)NC(=O)[C@H](CCN)NC(=O)[C@@H](CC(C)C)NC(=O)[C@H](CCCN)NC(=O)[C@H](Cc3ccc(O)cc3)NC(=O)[C@H](Cc3ccc(-c4ccccc4)cc3)NC(=O)[C@H](CCCCNC(=O)C(C)(C)C)NC2=O)c1` [Compound 3613] ({CH2CO}-[Dab]Y(Carboxymethyl)D[Phe(3-Me)]K(Piv)[Bip]Y[Orn][dL][Dab][Cha]VKCK[Dap][Aun]-OH; thioether N-14), 7.62.

By pIC50 is commonly meant −log10 of the IC50, conventionally taken in molar units.
